Earlier results as cited in Sander's compilation of Henry's law constants (doi:10.2175/wer.65.7.2).

assay: Henry solubility constant Hcp at 294 K (mol/(m3 Pa)); details: reference: Smith et al. (1993); cited value

Henry solubility constant Hcp at 294 K | Compound
0.25 | c1ccc2c(c1)ccc1ccccc12 [phenanthrene]

assay: Henry solubility constant Hcp at 293 K (mol/(m3 Pa)); details: reference: Smith et al. (1993); cited value

Compound | Henry solubility constant Hcp at 293 K
Cc1ccccc1 [methylbenzene] | 0.0017
c1ccccc1 [benzene] | 0.0018

assay: Henry solubility constant Hcp at 298.15 K (mol/(m3 Pa)); details: reference: Smith et al. (1993); cited value

Compound | Henry solubility constant Hcp
c1ccc2c(c1)-c1cccc3cccc-2c13 [benzo[jk]fluorene] | 1.5
c1ccc2cc3ccccc3cc2c1 [anthracene] | 0.11
c1ccc2c(c1)-c1cccc3c1c-2cc1ccccc13 [benzo[b]fluoranthene] | 0.83
c1ccc2c(c1)cc1ccc3cccc4ccc2c1c34 [benzo[a]pyrene] | 20
c1ccc2cc3c(cc2c1)-c1cccc2cccc-3c12 [benzo[k]fluoranthene] | 0.25
c1ccc2c(c1)Cc1ccccc1-2 [2,3-benzindene] | 0.084
c1cc2c3c(cccc3c1)CC2 [acenaphthene] | 0.041
C1=Cc2cccc3cccc1c23 [acenaphthylene] | 0.087
Cc1ccc(O)c(C)c1 [1-hydroxy-2,4-dimethylbenzene] | 0.58

Now from value to compound:

Henry solubility constant Hcp | Compound
9.4 | c1ccc2c(c1)ccc1c3ccccc3ccc21 [chrysene]
140 | c1ccc2c(c1)-c1ccc3ccc4cccc5cc-2c1c3c45 [indeno[1,2,3-cd]pyrene]
140 | c1ccc2c(c1)ccc1cc3c(ccc4ccccc43)cc12 [dibenz[a,h]anthracene]
180 | c1cc2ccc3ccc4ccc5cccc6c(c1)c2c3c4c56 [benzo[ghi]perylene]
0.02 | c1ccc2ccccc2c1 [naphthalene]
